# According to patent publication US20210244721A1, “SMALL MOLECULE ENTEROVIRUS INHIBITORS AND USES THEREOF” (priority 2020, published 2021):
# Read-outs that look alike come from different tables or passages of the source.
# Tests used:
# HeLa = test: Cytotoxicity in HeLa cells
# Description: (§2) The cytotoxicity of each compound was determined using the neutral red cell viability assay. The assay was performed under similar conditions (incubation temperature, time, and media) as the CPE, but excluded viral infection. Data acquisition and analysis (CC50) was performed similarly to the antiviral CPE assay, and all values are from triplicate experiments.
# A549 = test: Cytotoxicity in A549 cells
# Description: as §2
# EV-A71 Tainan/4643/98 = test: CPE assay, EV-A71 Tainan in RD cells; type: cell-based; conditions: Enterovirus A
# [1] = tested on: EV-D68 US/KY/14-18953 virus; test: CPE assay, EV-D68 US/KY/14-18953 in RD cells; type: cell-based, Enterovirus D68 (EV-D68)
# EV-D68 US/MO/14-18947 = test: CPE assay, EV-D68 US/MO/14-18947 in RD cells; conditions: EV-D68 US/MO/14-18947, RD cells
# CVB3 = test: CPE assay, CVB3 in Vero C1008 cells; type: cell-based, coxsackievirus B3 (CVB3); conditions: Enterovirus B
# EV-A71 US/AK/16-19516 = test: CPE assay, EV-A71 US/AK in RD cells; type: cell-based; conditions: Enterovirus A, EVA71
# [2] = tested on: influenza B virus B/Brisbane/60/2008 (Victoria); test: Plaque assay, influenza B virus; type: cell-based; conditions: 10 μM
# Description: (§1) Plaque assay was performed using the condition described previously (see, Wang, Y.; et al., J. Med. Chem. 2018, 61, 1074-1085). […] Oseltamivir carboxylate was included as a positive control and was tested at 200 nM.
# [3] = tested on: EV-D68 viral capsid protein VP1; test: VP1 expression by immunofluorescence imaging and western blot; type: cell-based, Enterovirus D68 (EV-D68); conditions: for VP1 protein expression: 1 μM, US/KY/14-18953 MOI=1, 9 hpi, immunofluorescence imaging and western blot
# Description: The EV-D68 2C protein is a highly conserved viral protein that plays multiple functions in genome replication. It has been implicated in RNA replication, membrane rearrangements, encapsidation, and uncoating (see, Van der Linden, L.; et al., Viruses 2015, 7, 4529-4562). Inhibition of viral 2C protein is expected to inhibit viral RNA and protein synthesis.
# Total proteins were extracted at 9 hpi using RAPI lysis buffer [50 mM Tris (pH 8.0), 1% NP-40, 0.1% SDS, 150 mM NaCl, 0.5% Sodium deoxycholate, 5 mM EDTA, 10 mM NaF, 10 mM NaPPi, […] 1 mM PMSF]. Equal amount of extracted total proteins were separated by electrophoresis and transferred to a polyvinylidene difluoride (PVDF) membrane. Viral protein VP1 or host GAPDH was recognized by rabbit anti-VP1 (GeneTex: GTX132313; 1:3,000 dilution) or mouse anti-GAPDH antibody (EMD Millipore: MAB374; 1:3,000 dilution), respectively, followed by detection using Horse radish peroxidase (HRP)-conjugated secondary antibody (ThermoFisher Scientific: 32430 or 656120; 1:3,000 dilutions) and Supersignal West Femto substrate (ThermoFisher Scientific).
# At 9 hpi, infected cells were fixed with 4% formaldehyde for 10 min followed by permeabilization with 0.2% Triton X-100 for another 10 min. After blocking with 10% bovine serum, cells were stained with rabbit anti-VP1 antibody (GeneTex: GTX132313) and followed by staining with anti-rabbit secondary antibody conjugated to Alexa-488 (ThermoFisher Scientific). Nucleus were stained with 300 nM DAPI (ThermoFisher Scientific) after secondary antibodies incubation. Fluorescent images were acquired using a Leica SP5-II spectral Confocal Microscope (Leica).
# [4] = tested on: influenza A virus A/California/07/2009 (H1N1); test: Plaque assay, influenza A virus; type: cell-based; conditions: 10 μM
# Description: as §1
# CVB3 2C protein = biological target: T1, CVB3 2C protein (Coxsackievirus B3, UniProt P03313); test: Thermal shift assay (differential scanning fluorimetry); type: binding
# T1 construct: CVB3 Nancy 2C (amino acids 37 to 329) protein; His tag with TEV site (inferred from the pET28a(+)-TEV vector and Ni-NTA purification); made in house; host or cells: E. coli Rosetta 2(DE3)
# RD cells = conditions: human, 3 days
# [5] = Mouse microsomal stability; type: in vitro ADME; conditions: mouse liver microsomes
# Description: Test compounds were incubated at 37° C. with liver microsomes (mouse or human) (Xenotech) at 1 μM drug concentration in the presence of a NADPH regenerating system at 0.5 mg/ml microsomal protein. Testosterone (3A4 substrate), Propafenone (2D6), and Diclofenac (2C9) were included as positive controls. Compounds were incubated with microsomes in the presence of a NADPH regenerating system (Sigma, Cat. No. N0505, Lot SLBH3107V). Aliquots at 0, 5, 10, 20, 30 and 60 minutes post incubation were collected and immediately mixed with cold acetonitrile containing internal standard (IS). Compounds incubated with microsomes without NADPH regenerating system for 60 minutes were also included. All the samples were analyzed by LC/MS/MS; disappearance of test compound were assessed based on peak area ratios of analyte/IS. Following equations were applied to calculate the microsome clearance: […]
# [6] = Cytotoxicity in Vero C1008 cells; conditions: African green monkey
# SH-SY5Y cells = test: Cytotoxicity in SH-SY5Y cells
# Description: as §2
# A172 cells = test: Cytotoxicity in A172 cells
# Description: as §2
# sodium channels = test: Sodium flux assay in DRG neurons; conditions: rat DRG neurons, veratridine
# Description: In this assay, rat dorsal root ganglia (DRG) neurons were incubated with various concentrations of testing compounds. Sodium channels were then activated by the sodium channel agonist veratridine. The resulting sodium flux was measured indirectly by quantifying the sodium channel triggered calcium flux, which was measured by a calcium-specific fluorescence dye (FIG. 4).
# Dorsal root ganglion neurons were prepared as previously described^27 and were loaded for 30 minutes at 3TC with 3 μM Fura-2AM (Cat #F1221, Thermo Fisher, stock solution prepared at 1 mM in DMSO, 0.02% pluronic acid, Cat #P-3000MP, Life technologies) to follow changes in intracellular calcium ([Ca^2+]c) in a standard bath solution containing 139 mM NaCl, 3 mM KCl, 0.8 mM MgCl2, 1.8 mM CaCl2, 10 mM Na HEPES, pH 7.4, 5 mM glucose exactly as previously described^28 Fluorescence imaging was performed with an inverted microscope, NikonEclipseTi-U (Nikon Instruments Inc., Melville, N.Y.), using objective Nikon Fluor 4X and a Photometrics cooled CCD camera Cool SNAP ES^2 (Roper Scientific, Tucson, Ariz.) controlled by Nis Elements software (version 4.20, Nikon Instruments). […] Fluorescence was recorded through a 505-nm dichroic mirror at 535±25 nm. […] The changes in [Ca^2+]c were monitored by following a ratio of F340/F380, calculated after subtracting the background from both channels. […]
# in vitro = conditions: human
# [7] = EVA71, EV-A71 Tainan, RD cells, read-out: EC50
# [8] = EV-D68 US/KY/14-18953, RD cells, CPE assay, read-out: EC50
# [9] = CVB3, Vero C1008 cells, read-out: EC50
# [10] = Enterovirus D, EVD68, RD, against five different strains of EV-D68 viruses (summary), read-out: EC50
# T1 sequence (P03313 1137-1429): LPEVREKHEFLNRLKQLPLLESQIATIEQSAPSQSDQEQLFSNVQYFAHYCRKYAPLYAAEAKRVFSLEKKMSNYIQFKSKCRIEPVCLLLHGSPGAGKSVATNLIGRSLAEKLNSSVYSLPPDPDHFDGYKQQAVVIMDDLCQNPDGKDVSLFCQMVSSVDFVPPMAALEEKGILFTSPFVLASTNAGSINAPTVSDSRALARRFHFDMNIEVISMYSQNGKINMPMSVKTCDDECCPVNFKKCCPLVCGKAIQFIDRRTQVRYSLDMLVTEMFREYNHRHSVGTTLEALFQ
smiles,measurement,setting,value
CCCCOc1cc(C(=O)NCCN(CC)CC)c2ccccc2n1 [drawing 127],CC50,HeLa,36 µM
same,CC50,A549,37.5 µM
NCCNC(=O)c1cc(-c2ccc(F)cc2)nc2ccccc12 [drawing 187],EC50,EV-A71 Tainan/4643/98; [7],9 µM
same,EC50,[1]; [8],0.4 µM
same,EC50,"EV-D68 US/MO/14-18947; Enterovirus D, EVD68, RD",0.3 µM
same,EC50,CVB3; [9],0.4 µM
same,EC50,EV-A71 US/AK/16-19516,14 µM
"O=C(NCCN1CCCC1)c1cc(-c2cccs2)nc2ccccc12 [Compound 12c, N-[2-(pyrrolidin-1-yl)ethyl]-2-(thiophen-2-yl)quinoline-4-carboxamide]",EC50,[1]; [10],< 1 µM
same,inhibition in plaque assay,[2],no inhibition
same,VP1 protein expression,[3]; RD cells,completely blocked
same,inhibition in plaque assay,[4],no inhibition
CNCCNC(=O)c1cc(-c2cccs2)nc2ccccc12 [drawing 192],EC50,EV-A71 Tainan/4643/98; [7],8.4 µM
same,EC50,[1]; [8],0.3 µM
same,EC50,"EV-D68 US/MO/14-18947; Enterovirus D, EVD68, RD",0.2 µM
same,EC50,CVB3; [9],0.3 µM
same,EC50,EV-A71 US/AK/16-19516,11.5 µM
"N=C(N)N [guanidine, reference compound]",Tm shift,"CVB3 2C protein; 1 mM, CVB3 2C 4.5 μM",1.77 °C
"O=C(NC1CN2CCC1CC2)c1cc(-c2ccccc2)nc2ccccc12 (stereo not drawn) [Compound 10c, N-{1-azabicyclo[2.2.2]octan-3-yl}-2-phenylquinoline-4-carboxamide]",CC50,RD cells,46.5 ± 14.7 µM
CN(C)CCNC(=O)c1cc(-c2ccccc2)nc2ccccc12 [drawing 181],EC50,EV-A71 Tainan/4643/98; [7],4.2 µM
same,EC50,EV-D68 US/MO/14-18947,0.2 µM
same,half-life at 1 μM,"[5]; 1 μM, NADPH, read-out: Mouse microsomal stability T1/2",22.4 min
same,CLint scaled at 1 μM,[5]; scaled to liver,246 mL/min/kg
same,EC50,CVB3; [9],0.3 µM
same,EC50,EV-A71 US/AK/16-19516,> 10 µM
"CNCCNC(=O)c1cc(-c2ccc(F)cc2)nc2ccccc12 [Compound 6aw, 2-(4 fluorophenyl)-N-[2-(methylamino)ethyl]quinoline-4-carboxamide]",thermal stability of CVB3 2C,"CVB3 2C protein; three concentrations (10, 30 or 100 μM)",increased the thermal stability of CVB3 2C in a concentration dependent manner
COc1ccc(CC(C)NCC(O)c2ccc(O)c(NC=O)c2)cc1 (stereo not drawn),EC50,"EV-A71 Tainan/4643/98; EVA71, RD",> 100 µM
same,CC50 at 3 days,[6],> 300 µM
same,EC50,"CVB3; CVB3, Vero C1008",9.9 µM
CN(C)CCNC(=O)c1cc(-c2ccccc2)nc2ccccc12 [drawing 132],CC50,SH-SY5Y cells,> 300 µM
same,CC50,A172 cells,88.4 µM
"CCCCOc1cc(C(=O)NCCN(CC)CC)c2ccccc2n1 [dibucaine, reference compound]",inhibition of sodium current conductance,sodium channels; 20 μM and 50 μM,potently inhibited
same,inhibition in plaque assay,[2],no inhibition
same,VP1 protein expression,[3]; RD cells,no effect
same,fluorescent signal of VP1 (immunofluorescence),"[3]; 3 μM, 9 hpi, compared to DMSO control",significantly reduced
same,VP1 expression (western blot),"[3]; 3 μM, RD cells, 9 hpi",nearly completely inhibited
same,inhibition in plaque assay,[4],no inhibition
"O=C(NC1C2CNCC21)c1cc(-c2cccs2)nc2ccccc12 (stereo not drawn) [Compound 6bk, N-{3-azabicyclo[3.1.0]hexan-6-yl}b-2-(thiophen-2-yl)quinoline-4-carboxamide]",SI = selectivity index (CC50/EC50),"[1]; EV-D68 US/KY/14-18953, RD cells",SI50 = 5.4
same,EC50,"[1]; Enterovirus D, EVD68, RD, EV-D68 US/KY/14-18953, RD cells, CPE assay, read-out: EC50",6.4 µM
same,CC50 at 3 days,in vitro,34.5 µM
Cc1ccc2c(c1)c1c3n2CCNC3CCC1 (stereo not drawn) [drawing 10],CC50,RD cells,19 ± 1.6 µM
"CN(C)CCNC(=O)c1cc(-c2cccs2)nc2ccccc12 [Compound 12a, N-[2-(dimethylamino)ethyl]-2-(thiophen-2-yl)quinoline-4-carboxamide]",EC50,"[1]; EV-D68 US/KY/14-18953, RD cells, CPE assay, listed as 6bf",0.04 µM
same,EC50,"[1]; Enterovirus D, EVD68, RD, against five different strains of EV-D68 viruses (summary)",< 1 µM
same,inhibition in plaque assay,[2],no inhibition
same,VP1 protein expression,[3]; RD cells,completely blocked
same,inhibition in plaque assay,[4],no inhibition
"CN(C)CCNC(=O)c1cc(-c2ccccc2)nc2ccccc12 [Compound 10a, N-[2-(dimethylamino)ethyl]-2-phenylquinoline-4-carboxamide]",EC50,"[1]; Enterovirus D, EVD68, RD, Table 6, EV-D68 US/KY/14-18953, RD cells",0.4 ± 0.2 µM
same,EC50,[1]; [10],< 1 µM
same,inhibition of sodium current conductance,sodium channels; 2 μM to 50 μM,minimal to no effect
same,inhibition in plaque assay,[2],no inhibition
same,VP1 protein expression,[3]; RD cells,completely blocked
same,inhibition in plaque assay,[4],no inhibition
O=C(NCCN1CCCC1)c1cc(-c2cccs2)nc2ccccc12 [drawing 134],CC50,SH-SY5Y cells,93.3 µM
same,CC50,A172 cells,65.4 µM
CNCCC(Oc1ccc(C(F)(F)F)cc1)c1ccccc1 (stereo not drawn),CC50 at 3 days,[6],11 µM
CN(C)CCNC(=O)c1cc(-c2ccc(F)cc2)nc2ccccc12 [drawing 185],EC50,EV-A71 Tainan/4643/98; [7],2.2 µM
same,EC50,[1]; [8],0.1 µM
same,EC50,"EV-D68 US/MO/14-18947; Enterovirus D, EVD68, RD",0.05 µM
same,EC50,CVB3; [9],0.06 µM
same,EC50,EV-A71 US/AK/16-19516,2.3 µM
CN(C)CCNC(=O)c1cc(-c2ccccc2)nc2ccccc12 [drawing 128],EC50,[1]; [8],0.4 µM
same,CC50,HeLa,68.7 µM
same,CC50,A549,121 µM
CCCCOc1cc(C(=O)NCCN(CC)CC)c2ccccc2n1 [drawing 131],CC50,SH-SY5Y cells,> 30 µM
same,CC50,A172 cells,> 30 µM
CN(C)CCNC(=O)c1cc(-c2cccs2)nc2ccccc12 [drawing 129],EC50,"[1]; EV-D68 US/KY/14-18953, RD cells, CPE assay",0.04 µM
same,CC50,HeLa,51.2 µM
same,CC50,A549,98.8 µM
CCCCOc1cc(C(=O)NCCN(CC)CC)c2ccccc2n1 [drawing 195],EC50,EV-A71 Tainan/4643/98; [7],> 10 µM
same,CC50 at 3 days,[6]; Vero C1008 cells,64.4 µM
same,EC50,CVB3; [9],1.3 µM
CN(C)CCNC(=O)c1cc(-c2cccs2)nc2ccccc12 [drawing 133],CC50,SH-SY5Y cells,136 µM
same,CC50,A172 cells,73.8 µM
